Data taken from PubChem BioAssay (NCI).
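At the GI50, growth is halved. Definition used: TGI = concentration required for complete inhibition of growth.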

Legend:
Test in all cases: DTP human tumour cell line panel, 384-well format
M14 melanoma = system: M14 melanoma
SN12C renal = system: SN12C renal
DU-145 prostate = system: DU-145 prostate
HOP-62 NSCLC = system: HOP-62 NSCLC
HS 578T breast = system: HS 578T breast
CCRF-CEM leukemia = system: CCRF-CEM leukemia
RXF 393 renal = system: RXF 393 renal
U251 glioblastoma = system: U251 glioblastoma
MDA-MB-468 breast = system: MDA-MB-468 breast
EKVX NSCLC = system: EKVX NSCLC
SW-620 colon = system: SW-620 colon
T-47D breast = system: T-47D breast
IGROV1 ovarian = system: IGROV1 ovarian
KM12 colon = system: KM12 colon
NCI-H23 lung = system: NCI-H23 lung
SF-539 CNS = system: SF-539 CNS
SF-268 CNS = system: SF-268 CNS
SF-295 CNS = system: SF-295 CNS
CAKI-1 renal = system: CAKI-1 renal
NCI/ADR-RES ovarian = system: NCI/ADR-RES ovarian
COLO 205 colon = system: COLO 205 colon
OVCAR-4 ovarian = system: OVCAR-4 ovarian
UACC-62 melanoma = system: UACC-62 melanoma
HL-60(TB) leukemia = system: HL-60(TB) leukemia
ACHN renal = system: ACHN renal
BT-549 breast = system: BT-549 breast
NCI-H322M lung = system: NCI-H322M lung
UO-31 renal = system: UO-31 renal
HOP-92 NSCLC = system: HOP-92 NSCLC
MALME-3M melanoma = system: MALME-3M melanoma
HCT-116 colon = system: HCT-116 colon
OVCAR-3 ovarian = system: OVCAR-3 ovarian
OVCAR-8 ovarian = system: OVCAR-8 ovarian
HT29 colon = system: HT29 colon
K-562 leukemia = system: K-562 leukemia
NCI-H226 lung = system: NCI-H226 lung
SK-MEL-5 melanoma = system: SK-MEL-5 melanoma
TK-10 renal = system: TK-10 renal
SK-OV-3 ovarian = system: SK-OV-3 ovarian
A549 NSCLC = system: A549 NSCLC
SK-MEL-28 melanoma = system: SK-MEL-28 melanoma
NCI-H522 lung = system: NCI-H522 lung
HCT-15 colon = system: HCT-15 colon
MDA-MB-435 melanoma = system: MDA-MB-435 melanoma
MOLT-4 leukemia = system: MOLT-4 leukemia
MDA-MB-231 breast = system: MDA-MB-231 breast
PC-3 prostate = system: PC-3 prostate
SNB-75 CNS = system: SNB-75 CNS
SNB-19 CNS = system: SNB-19 CNS
NCI-H460 NSCLC = system: NCI-H460 NSCLC
RPMI-8226 leukemia = system: RPMI-8226 leukemia
A498 renal = system: A498 renal
HCC-2998 colon = system: HCC-2998 colon
MCF7 breast = system: MCF7 breast
LOX IMVI melanoma = system: LOX IMVI melanoma
OVCAR-5 ovarian = system: OVCAR-5 ovarian
UACC-257 melanoma = system: UACC-257 melanoma
786-0 renal = system: 786-0 renal

`CNC(=O)c1cc2c(Oc3ccc(NC(=S)NC(=O)Cc4ccccc4)cc3F)ccnc2cc1OC` gave a GI50 (M14 melanoma) of 8.36 µM, a TGI (M14 melanoma) greater than 100 µM and a GI50 (SN12C renal) of 2.37 µM. It also gave a TGI (SN12C renal) of 19.5 µM, a GI50 (DU-145 prostate) of 34.8 µM and a TGI (DU-145 prostate) greater than 100 µM. For the same compound, the GI50 (HOP-62 NSCLC) was 17.9 µM, the TGI (HOP-62 NSCLC) was greater than 100 µM and the GI50 (HS 578T breast) was 2.49 µM. The TGI (HS 578T breast) was 7.12 µM, the GI50 (CCRF-CEM leukemia) was 5.36 µM and the TGI (CCRF-CEM leukemia) was 28.8 µM. The GI50 (RXF 393 renal) was 2.47 µM, the TGI (RXF 393 renal) was 6.88 µM and the GI50 (U251 glioblastoma) was 18.8 µM. It also gave a TGI (U251 glioblastoma) greater than 100 µM, a GI50 (MDA-MB-468 breast) of 5.2 µM and a TGI (MDA-MB-468 breast) of 25.2 µM. For the same compound, the GI50 (EKVX NSCLC) was 28.9 µM, the TGI (EKVX NSCLC) was greater than 100 µM and the GI50 (SW-620 colon) was 47.2 µM. The TGI (SW-620 colon) was greater than 100 µM, the GI50 (T-47D breast) was 5.05 µM and the TGI (T-47D breast) was 26 µM. The GI50 (IGROV1 ovarian) was 3.03 µM, the TGI (IGROV1 ovarian) was 17 µM and the GI50 (KM12 colon) was 3.4 µM. For the same compound, the TGI (KM12 colon) was greater than 100 µM, the GI50 (NCI-H23 lung) was 1.95 µM and the TGI (NCI-H23 lung) was 23.7 µM. It also gave a GI50 (SF-539 CNS) of 5.2 µM, a TGI (SF-539 CNS) of 27.8 µM and a GI50 (SF-268 CNS) of 2.5 µM. It also gave a TGI (SF-268 CNS) of 6.66 µM, a GI50 (SF-295 CNS) of 2.25 µM and a TGI (SF-295 CNS) of 37.2 µM. It also gave a GI50 (CAKI-1 renal) of 4.55 µM, a TGI (CAKI-1 renal) of 17.5 µM and a GI50 (NCI/ADR-RES ovarian) of 18.8 µM. The TGI (NCI/ADR-RES ovarian) was greater than 100 µM, the GI50 (COLO 205 colon) was 12.1 µM and the TGI (COLO 205 colon) was greater than 100 µM. The GI50 (OVCAR-4 ovarian) was 27.4 µM, the TGI (OVCAR-4 ovarian) was greater than 100 µM and the GI50 (UACC-62 melanoma) was 5.44 µM. It also gave a TGI (UACC-62 melanoma) of 95.4 µM, a GI50 (HL-60(TB) leukemia) of 29.2 µM and a TGI (HL-60(TB) leukemia) greater than 100 µM. It also gave a GI50 (ACHN renal) of 5.11 µM, a TGI (ACHN renal) of 54.5 µM and a GI50 (BT-549 breast) of 3.42 µM. The TGI (BT-549 breast) was 9.66 µM, the GI50 (NCI-H322M lung) was 31.9 µM and the TGI (NCI-H322M lung) was greater than 100 µM. It also gave a GI50 (UO-31 renal) of 23 µM, a TGI (UO-31 renal) greater than 100 µM and a GI50 (HOP-92 NSCLC) of 1.5 µM. It also gave a TGI (HOP-92 NSCLC) of 7.58 µM, a GI50 (MALME-3M melanoma) of 15.9 µM and a TGI (MALME-3M melanoma) greater than 100 µM. The GI50 (HCT-116 colon) was 21 µM, the TGI (HCT-116 colon) was greater than 100 µM and the GI50 (OVCAR-3 ovarian) was 17.7 µM. The TGI (OVCAR-3 ovarian) was greater than 100 µM, the GI50 (OVCAR-8 ovarian) was 36.2 µM and the TGI (OVCAR-8 ovarian) was greater than 100 µM. The GI50 (HT29 colon) was 5.67 µM, the TGI (HT29 colon) was greater than 100 µM and the GI50 (K-562 leukemia) was 0.486 µM. It also gave a TGI (K-562 leukemia) of 1.7 µM, a GI50 (NCI-H226 lung) of 4.01 µM and a TGI (NCI-H226 lung) of 45.7 µM. For the same compound, the GI50 (SK-MEL-5 melanoma) was 8.55 µM, the TGI (SK-MEL-5 melanoma) was 33.1 µM and the GI50 (TK-10 renal) was 24.3 µM. For the same compound, the TGI (TK-10 renal) was greater than 100 µM, the GI50 (SK-OV-3 ovarian) was 9.39 µM and the TGI (SK-OV-3 ovarian) was 36.2 µM. For the same compound, the GI50 (A549 NSCLC) was 12.3 µM, the TGI (A549 NSCLC) was greater than 100 µM and the GI50 (SK-MEL-28 melanoma) was 29.4 µM. It also gave a TGI (SK-MEL-28 melanoma) greater than 100 µM, a GI50 (NCI-H522 lung) of 5.3 µM and a TGI (NCI-H522 lung) of 27.1 µM. For the same compound, the GI50 (HCT-15 colon) was 8.36 µM, the TGI (HCT-15 colon) was greater than 100 µM and the GI50 (MDA-MB-435 melanoma) was 31.1 µM. For the same compound, the TGI (MDA-MB-435 melanoma) was greater than 100 µM, the GI50 (MOLT-4 leukemia) was 2.2 µM and the TGI (MOLT-4 leukemia) was 10.6 µM. It also gave a GI50 (MDA-MB-231 breast) of 7.39 µM, a TGI (MDA-MB-231 breast) of 83.2 µM and a GI50 (PC-3 prostate) of 10.9 µM. It also gave a TGI (PC-3 prostate) greater than 100 µM, a GI50 (SNB-75 CNS) of 1.9 µM and a TGI (SNB-75 CNS) of 6.95 µM. The GI50 (SNB-19 CNS) was 49 µM, the TGI (SNB-19 CNS) was greater than 100 µM and the GI50 (NCI-H460 NSCLC) was 20.1 µM. For the same compound, the TGI (NCI-H460 NSCLC) was greater than 100 µM, the GI50 (RPMI-8226 leukemia) was 14.7 µM and the TGI (RPMI-8226 leukemia) was greater than 100 µM. It also gave a GI50 (A498 renal) of 8.59 µM, a TGI (A498 renal) of 81.7 µM and a GI50 (HCC-2998 colon) greater than 100 µM. For the same compound, the TGI (HCC-2998 colon) was greater than 100 µM, the GI50 (MCF7 breast) was 14.5 µM and the TGI (MCF7 breast) was greater than 100 µM. The GI50 (LOX IMVI melanoma) was 8.61 µM, the TGI (LOX IMVI melanoma) was greater than 100 µM and the GI50 (OVCAR-5 ovarian) was 19.9 µM. The TGI (OVCAR-5 ovarian) was 93.3 µM, the GI50 (UACC-257 melanoma) was 18.9 µM and the TGI (UACC-257 melanoma) was greater than 100 µM. The GI50 ([…]-0 renal) was 8.3 µM and the TGI (786-0 renal) was 99.7 µM.
